Measurements taken from the SangsterLogP compilation.

Experiment: method code SF-AS, from DOI: 10.1016/0223-5234(92)90053-4

| logP | Compound |
| --- | --- |
| 3.79 | CCN(CC)CCCC(=O)c1ccccc1 |
| 3.03 | O=C(CCCNCCO)Cc1ccccc1 |
| 3.07 | CN(CCO)CCCC(=O)Cc1ccccc1 |
| 2.41 | O=C(CCCNCCO)c1ccccc1 |
| 3.96 | O=C(CCCNCCO)C1CCCCC1 |
| 3.61 | Cc1ccccc1C(=O)CCCNCCO |
| 3.85 | CCc1ccccc1C(=O)CCCNCCO |
| 2.4 | CN(CCO)CCCC(=O)c1ccccc1 |
| 3.29 | CN(CCO)CCCC(=O)c1cccs1 |
| 2.74 | NCCNCCCC(=O)c1ccccc1 |
| 3.28 | CC(O)CNCCCC(=O)c1ccccc1 (configuration not stated) |
| 3.16 | Cc1cc(C)c(C(=O)CCCNCCO)c(C)c1 |
| 2.58 | NCCNCCCC(=O)c1cccs1 |
| 2.73 | CC(O)CNCCCC(=O)c1cccs1 (configuration not stated) |
| 2.89 | O=C(CCCNCCO)c1cccs1 |
| 3 | Cc1ccsc1C(=O)CCCNCCO |
| 2.53 | CC(O)CNCCCC(=O)Cc1ccccc1 (configuration not stated) |
